Experimental data published in ChEMBL document CHEMBL4138081, “Recent developments of coumarin-containing derivatives and their anti-tubercular activity” (Eur J Med Chem, 2017).
Values after ≈ are worked out from the molar mass of the structure shown.

How the values were obtained:
[1] = system: Mycobacterium tuberculosis; experiment: Antimycobacterial activity against INH resistant Mycobacterium tuberculosis after 72 hrs by alamar blue dye-based broth dilution assay; assay type: functional
[2] = Resistant index, ratio of MIC for INH resistant Mycobacterium tuberculosis to MIC for Mycobacterium tuberculosis H37Rv; assay type: functional

Row | Structure (SMILES) | MIC [1] | Ratio [2]
1 | Cc1cc2oc(=O)c(C(c3cccs3)c3c(O)c4cc(C)c(C)cc4oc3=O)c(C)c2cc1C (centres undefined) | 8.34 µM (≈ 3.94 µg/mL) | 1.6
2 | O=c1oc2ccccc2cc1C(c1cccs1)c1c(O)c2ccccc2oc1=O (centres undefined) | 8.34 µM (≈ 3.36 µg/mL) | 1.6
